# “And” between values parts separate entries of the source, which are not always exact repeats. Identical values can stand only once. “Also recorded” adds a separate entry of the source. Like-named read-outs stand apart in the source and are kept apart here. Numbered stars: 1 amine (or outer) side, 2 acyl side, 3 side chain; on linkers, the order of the positions; unused ones are H or OH. Square brackets hold non-standard residues; d marks the D form. Peptide text beside a SMILES is read from it. ξ: configuration not given here. X1 = CN(C(Cc1cn(Cc2ccc(Br)cc2)c2ccccc12)C(=O)[*:2])[*:1]; ξAla(CF3) = NC(CC(F)(F)F)C(=O)O; X2 = N#CCCC(O[*:1])C(=O)[*:2]; NMeL = CN[CH](CC(C)C)C(=O)O; NMeA = CN[CH](C)C(=O)O
# Assays:
# Sec61α T86M = Sec61α T86M (Canis lupus familiaris, UniProt P38377, T86M); assay: Luciferase reporter assay in HEK293 cells expressing Sec61α T86M; settings: HEK293, 24 h, read-out: luciferase reporter activity (% of no-drug control), T86M
# Protocol: (§1) Data are mean values ± s.d. from n = 2 independent experiments.
# (§2) HEK293T cells (0.3 × 10^6) were seeded per well of a six-well plate and incubated at 37 °C in 5% CO2 for 24 h to adhere. Each of the two wells was transfected with 1 µg of plasmid encoding a luciferase with the signal peptide of either VCAM1 or pPL using PEI in a 5:1 ratio, after which cells were returned to the incubator for a further 24 h. Transfected cells were then resuspended following trypsinization, cell count estimated using a TC20 Automated Cell Counter (BioRad) and diluted to seed a 96-well flat-bottom plate with 1.6 × 10^4 cells per well. […] Cells were then incubated for a further 24 h, after which the luciferase-containing media were transferred to a clean 96-well plate and stored at −20 °C. Luciferase activity of the media was estimated using a Gaussia-GLOW Juice Luciferase Assay kit from PJK Biotech GmbH as per the manufacturer’s instructions. Luminescence was measured using an EnSpire Multimode plate reader (PerkinElmer). Background luminescence from media placed in a well with neither cells nor drug was subtracted from all values, and measurements were calculated as a percentage of luminescence intensity of a well expressing the appropriate luciferase construct in the absence of any drug. Curves were fitted, and IC50 values were calculated using GraphPad Prism 8.
# (§3) HEK293 Flp-In T-REx cells (Thermo Fisher Scientific, R78007) were cultured in Dulbecco’s modified Eagle’s medium (Gibco) supplemented with 10% FBS (Gibco) at 37 °C in a humidified 5% CO2 atmosphere. Approximately 0.3 µg of pOG44 and 1 µg of targeting construct plasmids were mixed in 250 µl of OptiMEM (Thermo Fisher Scientific, 51985-026). A total of 3 µl (3 µg) Lipofectamine3000 transfection reagent was then added to the DNA mix and incubated at room temperature for 20 min, and the whole mixture was added to the cells. Cells were exposed to 100 µg ml^−^1 hygromycin B (Invitrogen) and 10 µg ml^−^1 blasticidin for 3–4 weeks until the appearance of resistant colonies. Colonies were expanded into T75 flasks and induced with doxycycline (Sigma-Aldrich, D9891) at a concentration of 1–5 µg ml^−^1 for 48 h. Cells were collected, and total RNA was extracted followed by cDNA amplification and sequencing of Sec61 with gene-specific PCR primers to confirm. Cells were then used for the luciferase reporter assays as above.
# (§4) Data are mean values ± SD and are representative of n = 2 independent experiments.
# Wild Type Sec61α = Wild Type Sec61α (Canis lupus familiaris, UniProt P38377); assay: Luciferase reporter assay in HEK293 Flp-In T-REx cells expressing Wild Type Sec61α; design: remaining activity: dose or concentration left out as unconfirmed; settings: HEK293, 24 h, read-out: luciferase reporter activity (% of no-drug control), Wild Type
# Protocol: as §1, §2, §3, §4
# [1] = tested on: Sec61 WT TNFa(FL) reporter cells; assay: CTG (CellTiter-Glo) viability of TNFa(FL) reporter cells expressing Sec61 WT; type: cell-based; settings: replicate columns
# Excerpt: Supplement 41589_2023_1326_MOESM7_ESM.xlsx, sheet "Panel B" | column: Sec61 WT - CTG (TNFa(FL))
# SARS-CoV-2 = settings: Vero cells
# Sec61α S82P = Sec61α S82P (Canis lupus familiaris, UniProt P38377, S82P); assay: Luciferase reporter assay in HEK293 cells expressing Sec61α S82P; design: remaining activity: dose or concentration left out as unconfirmed; settings: HEK293, 24 h, read-out: luciferase reporter activity (% of no-drug control), S82P
# Protocol: as §1, §2, §3, §4
# [2] = tested on: collagen antibody-induced arthritis in BALB/c mice; assay: Anticollagen antibody-induced arthritis model, clinical scores; type: in vivo, mouse
# Sec61α S305A = Sec61α S305A (Canis lupus familiaris, UniProt P38377, S305A); assay: Luciferase reporter assay in HEK293 cells expressing Sec61α S305A; design: remaining activity: dose or concentration left out as unconfirmed; settings: HEK293, 24 h, read-out: luciferase reporter activity (% of no-drug control), S305A
# Protocol: as §1, §2, §3, §4
# mouse splenocytes = assay: Cytokine secretion assay, stimulated mouse splenocytes (MSD U-PLEX); type: cell-based; settings: 24 h, tested 0.025–25,000 nM
# Chain of Sec61α S305A (P38377 whole entry S305A): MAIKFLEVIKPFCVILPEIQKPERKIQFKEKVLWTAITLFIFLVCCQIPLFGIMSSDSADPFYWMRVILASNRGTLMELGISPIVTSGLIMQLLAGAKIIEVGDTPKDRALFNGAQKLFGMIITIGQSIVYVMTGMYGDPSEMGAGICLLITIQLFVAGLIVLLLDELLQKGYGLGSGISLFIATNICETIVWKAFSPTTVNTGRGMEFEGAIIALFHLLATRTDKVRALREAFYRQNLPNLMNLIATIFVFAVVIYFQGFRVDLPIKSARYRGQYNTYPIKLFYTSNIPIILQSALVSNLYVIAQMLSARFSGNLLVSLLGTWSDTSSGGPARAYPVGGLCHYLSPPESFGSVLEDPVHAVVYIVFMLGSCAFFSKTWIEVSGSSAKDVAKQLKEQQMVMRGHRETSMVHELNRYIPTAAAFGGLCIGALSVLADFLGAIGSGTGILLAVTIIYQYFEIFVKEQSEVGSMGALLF
# Chain of Sec61α S305A (P60059 whole entry, further chain): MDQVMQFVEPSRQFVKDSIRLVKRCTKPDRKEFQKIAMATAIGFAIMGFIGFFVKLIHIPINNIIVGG
# Chain of Sec61α S305A (P60468 whole entry, further chain): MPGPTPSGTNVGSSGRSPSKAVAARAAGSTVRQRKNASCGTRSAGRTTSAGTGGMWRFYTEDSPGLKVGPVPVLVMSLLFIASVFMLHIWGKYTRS
# Chain of Sec61α S82P (P60468 whole entry): as the sequence (P60468 whole entry, further chain) above
# Chain of Sec61α S82P (P38377 whole entry S82P): as the sequence (P38377 whole entry S305A) above, with S82P, A305S counted along it
# Chain of Sec61α S82P (P60059 whole entry, further chain): as the sequence (P60059 whole entry, further chain) above
# Chain of Sec61α T86M (P60468 whole entry): as the sequence (P60468 whole entry, further chain) above
# Chain of Sec61α T86M (P38377 whole entry T86M): as the sequence (P38377 whole entry S305A) above, with T86M, A305S counted along it
# Chain of Sec61α T86M (P60059 whole entry, further chain): as the sequence (P60059 whole entry, further chain) above
# Chain of Wild Type Sec61α (P38377 whole entry): as the sequence (P38377 whole entry S305A) above, with A305S counted along it
# Chain of Wild Type Sec61α (P60468 whole entry, further chain): as the sequence (P60468 whole entry, further chain) above
# Chain of Wild Type Sec61α (P60059 whole entry, further chain): as the sequence (P60059 whole entry, further chain) above
compound,measurement,setting,value
CC(C)CC1NC(=O)C(Cc2cn(Cc3ccc(Br)cc3)c3ccccc23)N(C)C(=O)C(CC(F)(F)F)NC(=O)C(CC(C)C)N(C)C(=O)C(CC(F)(F)F)NC(=O)C(CCC#N)OC(=O)C(C)N(C)C1=O (stereo not shown) [KZR-8445] (cyclo([X1]L[NMeA][X2][ξAla(CF3)][NMeL][ξAla(CF3)]); configuration not given here),remaining activity,Sec61α T86M; Drug nM (log10) 3.04576,2.62%
same,remaining activity,Sec61α T86M; Drug nM (log10) 3.52288,2.32%
same,remaining activity at 0.004 µM,Sec61α T86M; Drug nM (log10) 4,2.59%
same,remaining activity at 0.00018303 µM,Wild Type Sec61α; Drug nM (log10) 0.18303,85.5%
same,remaining activity at 0.000660151 µM,Wild Type Sec61α; Drug nM (log10) 0.660151,69.5%
same,remaining activity at 0.00113727 µM,Wild Type Sec61α; Drug nM (log10) 1.13727,51.6%
same,remaining activity,Wild Type Sec61α; Drug nM (log10) 1.61439,27.8%
same,remaining activity,Wild Type Sec61α; Drug nM (log10) 2.09151,11.4%
same,remaining activity,Wild Type Sec61α; Drug nM (log10) 2.56864,4.55%
same,remaining activity,Wild Type Sec61α; Drug nM (log10) 3.04576,2.42%
same,remaining activity,Wild Type Sec61α; Drug nM (log10) 3.52288,1.93%
same,remaining activity at 0.004 µM,Wild Type Sec61α; Drug nM (log10) 4,2.26%
same,remaining activity at 0.00050805 µM,Wild Type Sec61α; Drug nM (log10) -0.29409,91.1%
same,Sec61 WT - CTG (TNFa(FL)),[1]; 0.32 nM,111 and 110 and 116
same,Sec61 WT - CTG (TNFa(FL)),[1]; 1.6 nM,106 and 113 and 116
same,Sec61 WT - CTG (TNFa(FL)),[1]; 8 nM,110 and 111 and 115
same,Sec61 WT - CTG (TNFa(FL)),[1]; 40 nM,112 and 121 and 115
same,Sec61 WT - CTG (TNFa(FL)),[1]; 200 nM,108 and 114 and 116
same,Sec61 WT - CTG (TNFa(FL)),[1]; 1000 nM,105 and 108 and 113
same,Sec61 WT - CTG (TNFa(FL)),[1]; 5000 nM,95 and 105 (2×)
same,Sec61 WT - CTG (TNFa(FL)),[1]; 25000 nM,92 and 89 (2×)
same,virus-induced cytotoxicity,SARS-CoV-2,blocked
same,remaining activity at 0.00018303 µM,Sec61α S82P; Drug nM (log10) 0.18303,99%
same,remaining activity at 0.000660151 µM,Sec61α S82P; Drug nM (log10) 0.660151,80.3%
same,remaining activity at 0.00113727 µM,Sec61α S82P; Drug nM (log10) 1.13727,73.5%
same,remaining activity,Sec61α S82P; Drug nM (log10) 1.61439,47.5%
same,remaining activity,Sec61α S82P; Drug nM (log10) 2.09151,22.4%
same,remaining activity,Sec61α S82P; Drug nM (log10) 2.56864,10.1%
same,remaining activity,Sec61α S82P; Drug nM (log10) 3.04576,4.21%
same,remaining activity,Sec61α S82P; Drug nM (log10) 3.52288,2.82%
same,remaining activity at 0.004 µM,Sec61α S82P; Drug nM (log10) 4,3.25%
same,remaining activity at 0.00050805 µM,Sec61α S82P; Drug nM (log10) -0.29409,102%
same,"P versus vehicle (one-way ANOVA), disease progression",[2]; 10 mg kg−1 thrice weekly,0.01
same,"P versus vehicle (one-way ANOVA), disease progression",[2]; 20 mg kg−1 thrice weekly,< 0.0001
same,"P versus vehicle, disease progression",[2]; 20 mg kg−1 weekly,0.007
same,efficacy of weekly administration,[2]; 20 mg kg−1 weekly,effective
same,arthritis disease progression / clinical symptoms,[2]; IV thrice weekly after onset of disease,blocked disease progression in a dose-dependent manner; also recorded: ameliorated clinical arthritis symptoms
same,anti-inflammatory effect compared with dexamethasone,[2]; highest dose,stronger anti-inflammatory effect than the corticosteroid dexamethasone
same,remaining activity at 0.00018303 µM,Sec61α S305A; Drug nM (log10) 0.18303,82.1%
same,remaining activity at 0.000660151 µM,Sec61α S305A; Drug nM (log10) 0.660151,68.1%
same,remaining activity at 0.00113727 µM,Sec61α S305A; Drug nM (log10) 1.13727,47.4%
same,remaining activity,Sec61α S305A; Drug nM (log10) 1.61439,27.2%
same,remaining activity,Sec61α S305A; Drug nM (log10) 2.09151,13%
same,remaining activity,Sec61α S305A; Drug nM (log10) 2.56864,5.54%
same,remaining activity,Sec61α S305A; Drug nM (log10) 3.04576,3.19%
same,remaining activity,Sec61α S305A; Drug nM (log10) 3.52288,2.55%
same,remaining activity at 0.004 µM,Sec61α S305A; Drug nM (log10) 4,3.24%
same,remaining activity at 0.00050805 µM,Sec61α S305A; Drug nM (log10) -0.29409,89.3%
same,IC50,"mouse splenocytes; LPS-stimulation, read-out: IC50, IL-6 secretion",150 nM
same,IC50,"mouse splenocytes; Mus musculus, Splenocyte, LPS-stimulation, read-out: IC50, IL-1β secretion",> 25000 nM
same,IC50,"mouse splenocytes; Mus musculus, Splenocyte, LPS-stimulation, read-out: IC50, IL-6 secretion",114 nM
same,IC50,"mouse splenocytes; Mus musculus, Splenocyte, LPS-stimulation, read-out: IC50, IL-23 secretion",206 nM
same,IC50,"mouse splenocytes; Mus musculus, Splenocyte, anti-CD3/CD28-stimulation, read-out: IC50, GM-CSF secretion",31.2 nM
same,IC50,"mouse splenocytes; Mus musculus, Splenocyte, anti-CD3/CD28-stimulation, read-out: IC50, IFNγ secretion",59.6 nM
same,IC50,"mouse splenocytes; Mus musculus, Splenocyte, anti-CD3/CD28-stimulation, read-out: IC50, TNFα secretion",103 nM
same,IC50,"mouse splenocytes; anti-CD3/CD28-stimulation, read-out: IC50, GM-CSF secretion",39.5 nM
same,IC50,"mouse splenocytes; anti-CD3/CD28-stimulation, read-out: IC50, IFNγ secretion",32 nM
same,IC50,"mouse splenocytes; anti-CD3/CD28-stimulation, read-out: IC50, TNFα secretion",84.7 nM

# — paper PMC10449633 (Nature Chemical Biology, 2023)
